pIC50: −log10 of the molar value. In the oligonucleotide strings, read from the 5' end, every base follows the letter of its sugar. An asterisk marks phosphorothioate; unmarked linkages are phosphodiester. Other units and linkages are bracketed, terminal groups are in braces. A string of capitals states the bases alone. e = 2'-O-(2-methoxyethyl) (MOE); [5mC] = 5-methylcytosine

The test system of data set [1] is LN229 cells. The data set is described as follows: orthotopic LN229 glioblastoma model, RG5461 and RG5658 alone or with TMZ, survival. The data set is classed as in vivo. The note with it: single intratumoral dose Day 21 (20 ug RG5658, 50 ug RG5461), TMZ daily Days 35-41, nude mice. On the procedure:
RG5658 and RG5461 were tested in an orthotopic model of GBM established with LN229 cells. Treatments comprised anti-miR-10b compound alone or in combination with TMZ.
Further testing was performed to evaluate the effects of RG5658 and RG5461 treatment in combination with TMZ. Human gliomablastoma-derived LN229 cells growing in culture were trypsinzed, counted, and resuspended PBS. The cells express a fluorescent marker that enables monitoring of tumor growth and size during treatment. Approximately 5×10^5 cells, in a volume of 5 ul, were injected into the brain of nude mice on Day 0. Mice were randomized into the following treatment groups, with 8 mice per group: (1) PBS; (2) RG5461; (3) RG5658; (4) RG5461+TMZ; (5) RG5658+TMZ; and (6) PBS+TMZ. On Day 21, a single dose of anti-miR-10b compound was administered intratumorally at a dose of 20 ug for RG5658 or 50 ug for RG5461. TMZ was administered daily on each of Days 35-41. Survival was monitored, and overall median survival was determined.

Data set [2] relates to LN229 cells. The data set is described as follows: orthotopic LN229 glioblastoma model, RG5579 alone or with TMZ, survival. The note with it: intratumoral 40 ug RG5579 Day 21, TMZ daily Days 35-41, nude mice. Type of data set: in vivo. How it is done: RG5579 was tested in an orthotopic model of GBM established with LN229 cells.
Human gliomablastoma-derived LN229 cells growing in culture were trypsinized, counted, and resuspended PBS. The cells express a fluorescent marker that enables monitoring of tumor growth and size during treatment. Approximately 5×10^5 cells, in a volume of 5 ul, were injected into the brain of nude mice on Day 0. Mice were randomized into the following treatment groups, with 8 mice per group: (1) PBS; (2) RG5579; (3) PBS+TMZ; and (4) RG5579+TMZ. On Day 21, mice were given an intratumoral injection of either PBS or 40 ug of RG5579. On Days 35-41, TMZ was administered daily. Survival was monitored, and overall median survival was determined.

Data set [3] relates to miR-10b. The data set is described as follows: luciferase reporter assay for miR-10b in stable Hela cell line. Type of data set: cell-based. The following applies: Hela reporter cells transfected with miR-10b; for Luciferase (avg fold change) 1 nM: 1 nM anti-miR-10b compound; for Luciferase (avg fold change) 10 nM: 10 nM anti-miR-10b compound; for Luciferase (avg fold change) 100 nM: 100 nM anti-miR-10b compound. How it is done: In vitro potency was evaluated using a luciferase reporter assay. A luciferase reporter plasmid for miR-10b was designed, with a fully complementary miR-10b binding site in the 3′-UTR of the luciferase gene. A stable Hela cell line expressing this luciferase construct was generated. Cells were transfected to introduce miR-10b, which represses the expression of luciferase from the reporter construct. […] Cells were treated with anti-miR-10b compound at concentrations of 1 nM, 10 nM, and 100 nM. […] As shorter compounds, such as 9-mers, are typically not maximally active in the same assay conditions used for longer compounds, shorter compounds were selected based on maximum inhibition relative to appropriate control compounds. In this way, compounds that are diverse in both length and chemical composition were included in further testing.
(In general: In a reporter assay the amount or activity of a reporter protein is the signal.)

Data set [4] deals with LN229 cells. The data set is described as follows: cell viability assay (CellTiter-Glo), LN229 cells. The data set is classed as cell-based, human. The following applies: RNAiMAX transfection, 72 hours. On the procedure:
(§1) For the cell viability assay, approximately 8,000 cells were plated into each well of a 96-well plate. The following day, cells were transfected with anti-miR-10b compound at doses of 2, 4, 8, 16, 31, 63, 125, 250, and 500 nM, using RNAiMAX™ as the transfection reagent. After 72 hours, cell viability was determined using the CellTiter-Glo® Luminescent Cell Viability Assay. An IC50 was calculated for each compound. The assay was performed using both LN229, U87, MCF7, and HCN2 cells.

The test system of another data set is U87 cells. The data set is described as follows: cell viability assay (CellTiter-Glo), U87 cells. The note with it: RNAiMAX transfection, 72 hours. Type of data set: cell-based. How it is done: as §1
In general terms: ATP-based viability assays read luminescence as a measure of living cells.

Another data set concerns MCF7 cells. The data set is described as follows: cell viability assay (CellTiter-Glo), MCF7 cells. The data set is classed as cell-based. The following applies: RNAiMAX transfection, 72 hours. How it is done:
as §1

Data set [5] has as its system LN229 cells. The data set is described as follows: LN229 Orthotopic Model, summary of in vivo studies (Table 7). Set-up: species or system nude mice. The note with it: for survival benefit: Intratumoral anti-miR-10b alone, cell reads 'No survival benefit' over three lines. How it is done:
(§2) Human gliomablastoma-derived cells growing in culture are trypsinzed, counted, and resuspended PBS. The cells express a fluorescent marker and luciferase insertion that enables monitoring of tumor growth and size via an in vivo imaging system. Approximately 5×10^5 cells, in a volume of 5 ul, are injected into the brain of nude mice. Following intracranial tumor implantation, tumor burden is measured using the IVIS Spectrum In Vivo Imaging System (PerkinElmer), and mice are randomized into treatment groups. Intratumoral (e.g., 0.1-500 ug/tumor), subcutaneous (e.g., 100 mg/kg) or intravenous (e.g., 80 mg/kg) dosing of anti-miR-10b compound begins post-implantation. Tumor burden is measured weekly using the imaging system. Final tumor size and weight are measured at the end of the study.
Three candidate therapeutic agents, RG5579, RG5461, and RG5658 were tested in the subcutaneous and orthotopic glioma models. […] The studies were designed to evaluate subcutaneous administration vs. intratumoral administration in subcutaneous in orthotopic models; efficacy of the anti-miR-10b compound alone and in combination with TMZ; and efficacy of a single injection of anti-miR-10b compound vs multiple injections. The research tool compound RG384124 was also tested.
The results of the in vivo studies are summarized in Table 7 and illustrate the substantial improvement of overall survival following treatment with both anti-miR-10b compound and TMZ. RG5461 and RG5658 improved overall median survival in combination with TMZ treatment.

Data set [6] deals with Human gliomablastoma-derived cells. The data set is described as follows: initial testing in subcutaneous and orthotopic glioma models, single intratumoral dose. The data set is classed as in vivo, nude mice. The following applies: single dose administered intratumorally. How it is done: Human gliomablastoma-derived cells growing in culture are trypsinzed, counted, and resuspended in a 1:1 mixture of media:growth factor reduced Matrigel. Approximately 10^6 cells, in a volume of 100 ul, are injected subcutaneously into the flank of nude mice. Ten days following subcutaneous tumor implantation, tumor size is measured using calipers, and mice are randomized into treatment groups. Intratumoral (e.g., 5 ug/30 mm^3 tumor), subcutaneous (e.g., 100 mg/kg) or intravenous (e.g., 80 mg/kg) dosing of anti-miR-10b compound begins post-implantation. Tumor size is measured three to five days per week. Final tumor size and weight are measured at the end of the study.
as §2, with “Intratumoral (e.g., 0.1-500 ug/tumor), subcutaneous (e.g., 100 mg/kg) or intravenous (e.g., 80 mg/kg) dosing of anti-miR-10b compound begins post-implantation.” left out

The subject of data set [7] is miR-10b. The data set is described as follows: PD signature (mRNA of direct miR-10b target genes) in LN229 cells. Type of data set: cell-based, human. How it is done: To evaluate the on-target pharmacodynamic effects of treatment with anti-miR-10b, 18 genes that are direct targets of miR-10b were identified by next generation sequencing, and the expression of each of these genes following anti-miR-10b treatment was measured. The 18 genes were: ATXN2, ATXN7, BCL6, BDNF, CRLF3, DAZAP1, DVL3, FXR2, GATAD2A, GCLM, GTF2H1, INO80D, MIEF1, NCOA6, NFE2L1, PDE4A, SMAD2, and TET2.
LN229 cells were treated with a concentration of RG5579 ranging from 2 to 500 nM. After 24 hours, RNA was isolated and the mRNA levels of the 18 genes targeted were measured and averaged to provide a pharmacodynamic signature score (PD Signature Score), represented as Log 2 fold-change (Log 2FC) relative to mock-transfection.
Similar studies were conducted with RG5461 and RG5658, using a PD signature of 10 genes (non-overlapping with the 18-gene PD signature above).

The test system of the next data set is HCN2 cells. The data set is described as follows: cell viability assay (CellTiter-Glo), HCN2 cells. The data set is classed as cell-based. The note with it: RNAiMAX transfection, 72 hours. On the procedure: as §1

In the case of `Cn1nnc2c(C(N)=O)ncn2c1=O` [TMZ, temozolomide], in the data set with LN229 cells [1], the “% increase (relative to PBS) of median survival” value worked out at 22% and the “Median Survival” value came out at 67.5 days. For the same compound, in the data set on LN229 cells [2], the “Median Overall Survival % increase (relative to PBS)” value is 27% and the “Median Overall Survival Days” value stood at 61.5 days.
On to “UKAKCMAFGFGFGMUKAK (CAAATUCGGTTCTACAGGGTA; LNA/2'-F/2'-OMe modifications, chemistry not fully specified) [RG5658, anti-miR-10b modified oligonucleotide, 9 linked nucleosides]”, for which, in the data set on miR-10b [3], the “Luciferase (avg fold change) 1 nM” value was found to be 1.8 fold change, the “Luciferase (avg fold change) 10 nM” value came to 3.7 fold change and the “Luciferase (avg fold change) 100 nM” value is 4.7 fold change. Moreover, in the data set on LN229 cells [4], the pIC50 (commonly the negative decadic logarithm of the IC50, by convention in mol/L) was 7.05. The compound also had a pIC50 in the data set with U87 cells of 7.34. Besides, the pIC50 in the data set with MCF7 cells is 6.03. Also, in the data set on LN229 cells [1], the “Median Survival” value turned out to be 56 days. Besides, the median survival increase in the data set on LN229 cells [5] (Intratumoral anti-miR-10b + TMZ) is given as 71%. Further, the survival benefit entry in the data set with LN229 cells [5] is given as “No”. In addition, in data set [6], the overall survival entry is recorded as “did not significantly improve overall survival” and the tumor growth result is given as “consistently delayed tumor growth”. In addition, the “10-gene PD signature” value with miR-10b [7] is recorded as “dose-dependent de-repression of a 10-gene PD signature”.
With “5′-CACAAATTCGGTTCTACAGGGTA-3′ (antisense e[5mC]*eA*e[5mC]*eA*eA*eA*eT*eT*e[5mC]*eG*eG*eT*eT*e[5mC]*eT*eA*e[5mC]*eA*eG*eG*eG*eT*eA) [RG384124, research tool compound; each nucleoside 2′-O-methoxyethyl, each C 5-methylcytosine, each linkage phosphorothioate]”, in the data set with miR-10b [3], the “Luciferase (avg fold change) 1 nM” value is 2.8 fold change. Moreover, the “Luciferase (avg fold change) 10 nM” value with miR-10b [3] worked out at 29.5 fold change. Besides, the “Luciferase (avg fold change) 100 nM” value with miR-10b [3] is 55.6 fold change. The pIC50 with LN229 cells [4] was 7.37; in the data set on U87 cells it was 7.50; in the data set with MCF7 cells it was 7.09; in the data set on HCN2 cells it was 7.35. The survival benefit entry in the data set with LN229 cells [5] is “No”.
